Common to all, as to settings: J774.A1, 24 h
Test [1] deals with J774.A1. Briefly: Inhibition of LPS-induced IL6 secretion in mouse J774A.1 cells at 20 uM after 24 hrs by ELISA; values are per cent of control.
Test [2] has as its system J774.A1. Briefly: IL6 secretion in mouse J774A.1 cells at 20 uM after 24 hrs by ELISA. A general note: In an ELISA, binding on a coated surface is turned into a signal by an enzyme label.
The test system of test [3] is J774.A1. The experiment in a line: Inhibition of LPS-induced TNFalpha secretion in mouse J774A.1 cells at 20 uM after 24 hrs by ELISA; values are per cent of control.
In test [4] the test system is J774.A1. Briefly: Inhibition of TNFalpha secretion in mouse J774A.1 cells at 20 uM after 24 hrs by ELISA; values are per cent of control.

Turning to `C[C@]1(COC=O)[C@H]2CC[C@@]3(C)OC(C4=CCOC4=O)CC3[C@]2(C)CC[C@H]1OC(=O)c1ccccc1` (stereo partly drawn), the level, % of control at 20 µM in the test with J774.A1 [1] turned out to be 85.7%; with J774.A1 [3] it was 36.5%; in the test with J774.A1 [4], 28.5%. The molecule also showed a % of control at 20 µM in the test with J774.A1 [2] of 27.7%.
For `CC(=O)OC[C@@]1(C)[C@H]2CC[C@@]3(C)OC(C4=CCOC4=O)CC3[C@]2(C)CC[C@H]1OC(C)=O` (stereo partly drawn) the same measures were 150%, 99.4%, 80% and 72.9%.
For `CCCCCC(=O)OC[C@@]1(C)[C@H]2CC[C@@]3(C)OC(C4=CCOC4=O)CC3[C@]2(C)CC[C@H]1OC(=O)CCCCC` (stereo partly drawn) the same measures were 85.2%, 43.8%, 35.7% and 31.4%.
For the molecule `CCC(=O)OC[C@@]1(C)[C@H]2CC[C@@]3(C)OC(C4=CCOC4=O)CC3[C@]2(C)CC[C@H]1OC(=O)CC` (stereo partly drawn), the level, % of control at 20 µM with J774.A1 [1] came to 110%; in the test with J774.A1 [3] it was 115%; in the test with J774.A1 [4] it was 82.8%. In the test with J774.A1 [2], this molecule gave a % of control at 20 µM of 60.5%.
Regarding `CCCCCC(=O)O[C@@H]1CC[C@@]2(C)C3CC(C4=CCOC4=O)O[C@]3(C)CC[C@@H]2[C@]1(C)CO` (stereo partly drawn), the level, % of control at 20 µM in the test on J774.A1 [1] was found to be 102%; in the test on J774.A1 [3], 106%; in the test with J774.A1 [4], 44.4%. For the same molecule, the % of control at 20 µM with J774.A1 [2] was 69.8%.
On to `C[C@]1(COC(=O)C(=O)CCC(=O)O)[C@H]2CC[C@@]3(C)OC(C4=CCOC4=O)CC3[C@]2(C)CC[C@H]1OC(=O)C(=O)CCC(=O)O` (stereo partly drawn), for which the level, % of control at 20 µM with J774.A1 [1] amounted to 114%; in the test with J774.A1 [3], 129%; with J774.A1 [4] it was 81.7%. Moreover, the % of control at 20 µM in the test on J774.A1 [2] was found to be 55%.
For `C=C1CC[C@@H]2[C@](C)(CO)[C@H](O)CC[C@@]2(C)[C@@H]1CC(OC(=O)c1cc2c(cc1[N+](=O)[O-])OCO2)C1=CCOC1=O` (stereo partly drawn) the same measures were 44.6%, 94.4%, 115% and 70.1%.
For `C=C1CC[C@@H]2[C@](C)(CO)[C@H](O)CC[C@@]2(C)[C@@H]1CC(OC(=O)CCCCC)C1=CCOC1=O` (stereo partly drawn), in that order: 46.6%, 76%, 79.6% and 82.9%.
For `C=C1CC[C@@H]2[C@](C)(CO)[C@H](O)CC[C@@]2(C)[C@@H]1CC(OC(=O)c1ccccc1)C1=CCOC1=O` (stereo partly drawn), in that order: 37.5%, 60.8%, 92.9% and 82%.
`C=C1CC[C@@H]2[C@](C)(CO)[C@H](O)CC[C@@]2(C)[C@@H]1CC(OC(=O)C/C=C/c1ccc2c(c1)OCO2)C1=CCOC1=O` (stereo partly drawn): the level, % of control at 20 µM with J774.A1 [1] turned out to be 56.9%; in the test with J774.A1 [3], 61%; in the test on J774.A1 [4], 149%. Moreover, the % of control at 20 µM with J774.A1 [2] was 96%.
For `C=C1CC[C@@H]2[C@](C)(CO)[C@H](O)CC[C@@]2(C)[C@@H]1CC(OC(=O)CC)C1=CCOC1=O` (stereo partly drawn), in that order: 74.7%, 96.9%, 70% and 82.6%.
Regarding `C=C1CC[C@@H]2[C@](C)(CO)[C@H](O)CC[C@@]2(C)[C@@H]1C/C=C1/C(=O)OC[C@H]1O` [ANDROGRAPHOLIDE], the figures for the level, % of control at 20 µM with J774.A1 [1], in the test with J774.A1 [3] and in the test with J774.A1 [4] were 56%, 62.5% and 63.9%, respectively. The % of control at 20 µM in the test with J774.A1 [2] amounted to 49.2%.
For `C[C@]1(COC(=O)c2ccccc2)[C@H]2CC[C@@]3(C)OC(C4=CCOC4=O)CC3[C@]2(C)CC[C@H]1OC(=O)c1ccccc1` (stereo partly drawn) the same measures were 107%, 294%, 204% and 48.2%.
With `C=C1CC[C@@H]2[C@](C)(CO)[C@H](O)CC[C@@]2(C)[C@@H]1CC(OC(=O)c1ccc([N+](=O)[O-])cc1)C1=CCOC1=O` (stereo partly drawn), the level, % of control at 20 µM with J774.A1 [1] was found to be 29.2%; in the test on J774.A1 [3], 60%; in the test with J774.A1 [4], 65.8%. Also, the % of control at 20 µM in the test on J774.A1 [2] stood at 58.6%.
For `C=C1CC[C@@H]2[C@](C)(CO)[C@H](O)CC[C@@]2(C)[C@@H]1CC(OC(=O)c1ccc(C)cc1)C1=CCOC1=O` (stereo partly drawn), in that order: 32.1%, 41.6%, 152% and 128%.
For `C[C@@]12COS(=O)O[C@@H]1CC[C@@]1(C)C3CC(C4=CCOC4=O)O[C@]3(C)CC[C@H]21` (stereo partly drawn), in that order: 208%, 231%, 61.8% and 79.7%.
As for `C=C1CC[C@@H]2[C@](C)(CO)[C@H](O)CC[C@@]2(C)[C@@H]1CC(OC(C)=O)C1=CCOC1=O` (stereo partly drawn), the level, % of control at 20 µM worked out at 44.7% with J774.A1 [1], 62.7% in the test on J774.A1 [3] and 107% in the test on J774.A1 [4]. This molecule also registered a % of control at 20 µM with J774.A1 [2] of 95.1%.

For the origin of these results see ChEMBL document CHEMBL1140579, “Synthesis of andrographolide derivatives and their TNF-alpha and IL-6 expression inhibitory activities” (2007).
